# Laboratory results published in patent US10662193B2, “Carbazole and carboline compounds for use in the diagnosis, treatment, alleviation or prevention of disorders associated with amyloid or amyloid-like proteins” (AC IMMUNE SA, priority 2014, dated 2020).
# How the values were obtained:
# [1] = system: tau tangles/Aβ plaques on AD brain sections; experiment: Assay 1: direct staining of human Alzheimer's disease brain sections (fluorescence); format: binding; design: key to Direct staining of tau tangles/Aβ plaques on AD brain sections at 100 μM / Direct staining of tau tangles on AD brain sections at 100 μM / Direct staining of Aβ plaques on AD brain sections at 100 μM / Direct staining of tau tangles on AD brain sections (footnote a: at 250 μM): − (No); +++ (strong); ++ (good); + (weak)
# Experimental: Assay 1 (Fluorescence Based Assay):
# (§1) Direct Binding of Compounds of this Invention to Human Alzheimer's Disease Brain Sections and/or Displacement of RefA and Compound B
# (§2) Frozen sections with a thickness of […] from the amygdala of donors diagnosed with Braak stage V-VI Alzheimer's Disease (Braak, H.; Braak, E. Acta Neuropathol., 1991, 82, 239-259), were purchased from a commercial provider (Tissue Solutions) and kept at −80° C. until use.
# Direct Staining of Human Alzheimer's Disease Brain Sections
# Brain sections were encircled with pap pen liquid blocker to reduce the volume of solution for the different incubations. Sections were fixed for 15 min at 4° C. with 4% paraformaldehyde and washed three times 5 minutes with PBS at room temperature. […] To reduce the auto-fluorescence of the tissue, the sections were incubated in a solution of 0.1% Sudan Black (Sigma 199664) in 70% ethanol for 15 min at room temperature in the dark, washed four times for 5 minutes with PBS, and mounted using ProLong Gold Antifade reagent (Invitrogen P36930). Sections were then analyzed on the Nikon Eclipse Ti microscope to detect staining and imaged using Nikon DS-Fi2 camera and NIS-Element AR4.13.1 software.
# [2] = system: tau tangles on AD brain section; experiment: Assay 1: displacement of RefA on human AD brain sections (fluorescence); format: binding; details: 1 μM RefA vs. 250 μM compound
# Experimental: as §1, §2
# Displacement of RefA and Compound B
# Brain sections were mainly treated as described above. Test compounds were, however, incubated on the section at 250 μM in 50% ethanol for 20 min at room temperature, and then directly incubated with the fluorescent reference compounds RefA and Compound B, each at 1 μM in 50% ethanol for 20 min at room temperature. RefA and Compound B stainings were visualized using the 470 nm and 365 nm excitation filters, respectively. Images were acquired, and tangles and plaques quantified using the NIS-Element software. Only those compounds not directly staining tangles or plaques at the same wavelengths as RefA and Compound B were tested in the displacement assay.
# Structure of RefA (Tago et al., J. Label. Compd. Radiopharm. 2013, DOI: 10.1002/jlcr.3133)
# [3] = 100 μM compound, human AD brain sections, fluorescence, cell does not say tangles or plaques
# [4] = 100 μM in 50% ethanol, 20 min, "(tangles)" beside the symbol = tangles stained
SMILES,"Direct staining of tau tangles/Aβ plaques on AD brain sections at 100 μM [1, 3]",other results
Cn1c2ccncc2c2ccc(Nc3cnn(CCF)c3)nc21 [Example 40],,Direct staining of tau tangles on AD brain sections at 100 μM ([1]; 100 μM compound): +++ (tangles); Competition on AD brain section tau tangles (1 μM RefA vs. 250 μM compound) [2]: 91%
Cn1c2ccncc2c2ccc(Nc3cnn(CCCCF)c3)nc21 [Example 45],−,Competition on AD brain section tau tangles (1 μM RefA vs. 250 μM compound) [2]: 39%
Cn1c2ccncc2c2ccc(Nc3ccnn3CCF)nc21 [Example 46],−,Competition on AD brain section tau tangles (1 μM RefA vs. 250 μM compound) [2]: 55%
Cn1c2ccncc2c2ccc(Nc3ccn(CCF)n3)nc21 [Example 47],,Direct staining of tau tangles on AD brain sections at 100 μM ([1]; 100 μM compound): ++ (tangles); Competition on AD brain section tau tangles (1 μM RefA vs. 250 μM compound) [2]: 89%
Cn1c2ccncc2c2ccc(Nc3cccc(NCCF)n3)nc21 [Example 78],,Direct staining of tau tangles on AD brain sections at 100 μM ([1]; 100 μM compound): ++ (tangles); Competition on AD brain section tau tangles (1 μM RefA vs. 250 μM compound) [2]: 91%
Cn1c2c(c3ccc(Nc4cccc(OCCF)c4)nc31)C(=O)NCC2 [Example 178],−,
Cn1c2c(c3ccc(Nc4ccc(C#N)c(F)c4)nc31)C(=O)NCC2 [Example 179],,Direct staining of tau tangles on AD brain sections at 100 μM ([1]; 100 μM compound): + (tangles)
COc1cc(Nc2ccc3c4c(n(C)c3n2)CCNC4=O)ccc1F [Example 180],−,
COc1cc(Nc2ccc3c4c(n(C)c3n2)CCNC4=O)ccn1 [Example 181],,Direct staining of tau tangles on AD brain sections at 100 μM ([1]; 100 μM compound): + (tangles)
CN1CCc2c(c3ccc(Nc4ccc(F)nc4)nc3n2C)C1=O [Example 182],−,
Cn1c2c(c3ccc(Nc4ccc(F)c(F)c4)nc31)C(=O)N(CCF)CC2 [Example 183],,Direct staining of Aβ plaques on AD brain sections at 100 μM ([1]; 100 μM compound): + (plaques)
Cn1c2c(c3ccc(Nc4cccc(F)n4)nc31)C(=O)NCC2 [Example 184],,Direct staining of Aβ plaques on AD brain sections at 100 μM ([1]; 100 μM compound): + (plaques)
CN1CCc2c(c3ccc(Nc4cccc(F)n4)nc3n2C)C1=O [Example 185],,Direct staining of Aβ plaques on AD brain sections at 100 μM ([1]; 100 μM compound): + (plaques)
Cn1c2c(c3ccc(Nc4cnn(CCF)c4)nc31)C(=O)NCC2 [Example 186],,Direct staining of Aβ plaques on AD brain sections at 100 μM ([1]; 100 μM compound): + (plaques)
Cn1c2c(c3ccc(Nc4ccc(C#N)c(F)c4)nc31)C(=O)N(CCF)CC2 [Example 187],,Direct staining of tau tangles on AD brain sections at 100 μM ([1]; 100 μM compound): + (tangles)
Cn1c2c(c3ccc(Nc4ccc5nsnc5c4)nc31)C(=O)N(CCF)CC2 [Example 188],−,
CN1CCc2c(c3ccc(Nc4ccn(CCF)n4)nc3n2C)C1=O [Example 190],−,
CN1CCc2c(c3ccc(Nc4cnn(CCCF)c4)nc3n2C)C1=O [Example 191],−,
Cn1c2cc[nH]c(=O)c2c2ccc(Nc3cccc(OC(F)F)c3)nc21 [Example 193],−,

SMILES,"Direct staining of tau tangles/Aβ plaques on AD brain sections at 100 μM [1, 3]",other results
Cn1ccc2c(c1=O)c1ccc(Nc3ccc(F)c(F)c3)nc1n2C [Example 194],−,
CN1CCc2c(c3ccc(N4CCC[C@@H](F)C4)nc3n2C)C1=O [Example 196],−,
CN1CCc2c(c3ccc(Nc4ccc(OCCF)c(F)c4)nc3n2C)C1=O [Example 198],−,
Cn1c2c(c3ccc(Nc4ccc(OCCF)c(F)c4)nc31)C(=O)NCC2 [Example 199],,Direct staining of Aβ plaques on AD brain sections at 100 μM ([1]; 100 μM compound): + (tangles) + (plaques); Direct staining of tau tangles on AD brain sections at 100 μM ([1]; 100 μM compound): + (tangles) + (plaques)
CN1CCc2c(c3ccc(Nc4ccc(F)c(OCCF)c4)nc3n2C)C1=O [Example 200],,Direct staining of Aβ plaques on AD brain sections at 100 μM ([1]; 100 μM compound): + (tangles) + (plaques); Direct staining of tau tangles on AD brain sections at 100 μM ([1]; 100 μM compound): + (tangles) + (plaques)
CN1CCc2c(c3ccc(Nc4ccc(O)c(F)c4)nc3n2C)C1=O [Example 202],−,
CN1CCc2c(c3ccc(Nc4ccc(F)c(O)c4)nc3n2C)C1=O [Example 203],−,
CN1CCc2c(c3ccc(Nc4ccnc(OCCF)c4)nc3n2C)C1=O [Example 204],−,
Cn1c2c(c3ccc(Nc4ccnc(OCCF)c4)nc31)C(=O)NCC2 [Example 205],−,
CN1CCc2c(c3ccc(Nc4ccc(OCCF)cn4)nc3n2C)C1=O [Example 206],−,
Cn1c2c(c3ccc(Nc4ccc(OCCF)cn4)nc31)C(=O)NCC2 [Example 207],−,
Cn1c2c(c3ccc(Nc4cc(OCCF)ccn4)nc31)C(=O)NCC2 [Example 208],−,
CN1CCc2c(c3ccc(Nc4cccc(OCCF)n4)nc3n2C)C1=O [Example 209],−,
Cn1c2c(c3ccc(Nc4cccc(OCCF)n4)nc31)C(=O)NCC2 [Example 210],−,
CN1CCc2c(c3ccc(Nc4ccc(F)c([N+](=O)[O-])c4)nc3n2C)C1=O [Example 211],−,
CN1CCc2c(c3ccc(Nc4ccc(F)c([N+](C)(C)C)c4)nc3n2C)C1=O [Example 212],−,
Cn1c2c(c3ccc(Nc4ccc(F)c(F)c4)nc31)C(=O)N(CCO)CC2 [Example 215],,"Direct staining of tau tangles/Aβ plaques on AD brain sections at 100 μM [1, 4]: −"
"CN(C)C(=O)CCc1ccc(/C=C2/C=CC(c3cccs3)N2)n1B(F)F (stereo not drawn) [Prep. Example 17, reference compound]",,"Direct staining of tau tangles/Aβ plaques on AD brain sections at 100 μM [1, 4]: −"
"COc1ccc(C2C(CCC(=O)NCCCCCC(=O)N(C)C)=C/C(=C/c3[nH]c(C)cc3C)N2B(F)F)cc1 (stereo not drawn) [Prep. Example 18, reference compound]",,"Direct staining of tau tangles/Aβ plaques on AD brain sections at 100 μM [1, 4]: −"
